The target of assay [1] is T1, VEGFR3 cytoplasmic domain (Homo sapiens, UniProt P35916).
T1 construct: VEGFR3 cytoplasmic domain (amino acids 798-1298) was purchased as N-terminal GST-fusion protein; GST (N); purchased
As to the kind of experiment: VEGFR3 biochemical assay (AlphaScreen). Conditions: GST-VEGFR3 cytoplasmic domain, 500 μM ATP (modified form: His-fusion, 1 μM ATP). On the procedure: Compounds of the invention may be tested for in vitro activity in the following assay: A biotin labelled peptide is used as substrate (amino acid sequence: Biotin-[…]NH2). VEGFR3 cytoplasmic domain (amino acids 798-1298) was purchased as N-terminal GST-fusion protein (“the enzyme”). The 15 μL assay reactions are run in Greiner brand white 384-well low volume plates. All reactions contained 10 mM HEPES pH 7.4, 10 mM MgCl2, 0.01% (v/v) Tween-20, 50 μM Na3VO4, 0.01% (w/v) albumin from chicken egg white, 1 mM Dithiothreitol, 111 nM peptide substrate, 500 μM ATP, and 3.8 ng/reaction enzyme, with the enzyme being omitted from negative control reactions. Compounds were added in a volume of […] from dilution series prepared in DMSO, positive and negative control reactions receiving the same volume DMSO without compound. The plates were sealed with adhesive seals and incubated for 90 minutes at 30 degree Celsius. The reactions were stopped with the detection reagents added at the same time as follows: Product formation was quantified as amplified luminescence between PerkinElmer AlphaScreen™ beads, using Streptavidin-coated donor and anti-phosphotyrosine (P-Tyr-100) acceptor beads. To each reaction, 5 μL containing 10 mM HEPES pH 7.4, 25 mM NaCl, 100 mM EDTA, 0.01% (v/v) Tween-20, and 6.25 μg/mL of each bead type were added. Plates were incubated for 6 hours before being read on a PerkinElmer EnVision™ plate reader in HTS Alphascreen™ mode. IC50 values were obtained by calculating percent inhibition (% I) for each reaction relative to controls on the same plate (% I=(I-CN)/(CP-CN) where CN/CP are the averages of the negative/positive reactions, respectively), then fitting the % I data vs. compound concentration [I] to % I=(A+((B−A)/(1+((C/[I])̂D)))) where A is the lower asymptote, B is the upper asymptote, C is the IC50 value, and D is the slope factor.
The above assay was also run in a modified form in some cases (indicated below with *). In these cases, VEGFR3 cytoplasmic domain (amino acids 818-1177, lacking 949-1002 of UniProt accession number P35916) was expressed and purified as N-terminal Hexa-His-fusion protein (“the enzyme”), rather than using the N-terminal GST-fusion protein. The assay conditions were the same as above but with 1 μM ATP and 8 ng/reaction of the enzyme.

Another assay addresses T2, P397Y-FAK (Homo sapiens, UniProt Q05397).
T2 construct: endogenous in cells; host or cells: MDA-231-LNA
Nature of the assay: P397Y-FAK inhibition MSD platform cellular biomarker assay. It is filed as cell-based. Conditions: MDA-231-LNA cells, 1 hour compound. As to the method:
96-well plates (cat#MA6000, Meso Scale Discovery) are coated with 30 μL/well of mouse monoclonal FAK antibody [63D5] (cat#ab72140, Abcam) pre-diluted in PBS to a concentration of 1 mg/mL. The plates are sealed with adhesive film and incubated for 16 hours at 4° C. The antibody is then flicked out of the plates and 150 μL of 3% [w/v] Blocker A (cat#R93AA-1, Meso Scale Discovery) is added. The plates are resealed with adhesive film and incubated at room temperature on a shaker set at medium speed for 2 hours. The plates are then washed three times with a solution containing 50 mM Tris-HCl pH 7.5, 0.15 M NaCl and 0.02% Tween-20, before cell lysate addition described below.
Cells are split 1:2 into T150 cell culture flasks 2 days prior to compound treatment. On the day prior to compound treatment, 200 μL media containing 20,000 cells is seeded into all wells of white, clear-bottom, TC treated, pclear, 96-well microtitre plates (cat#655098, Greiner Bio-One), and the plates are incubated at 37° C. and 5% CO2 for […]. 1 pUwell of compound is then added from dilution series prepared in DMSO. Negative control wells receive the same volume of DMSO without compounds, and positive control wells receive 2 μM of a control compound in the same volume of DMSO. Cells are treated for 1 hour at 37° C. and 5% CO2. The media/compounds are then flicked off and 55 pUwell of ice-cold complete lysis buffer is added. Complete lysis buffer is prepared by adding 1 tablet PhosSTOP complete phosphatase inhibitor (cat#04906837001, Roche) and 1 tablet Complete, Mini, EDTA-free, protease inhibitor (cat#04693159001, Roche) per 10 mL of incomplete lysis buffer (150 mM NaCl, 20 mM Tris-HCl pH 7.5, 1 mM EDTA, 1 mM EGTA, 1% Triton-X 100). Plates are incubated on ice for 30 minutes, with 30 seconds high speed plate shaking every 5 minutes. 40 μL/well of cell lysate is transferred to the coated, blocked and washed 96-well microtitre plates described above. The 96-well plates are sealed with adhesive film and incubated for 16 hours at 4° C. The plates are then washed three times with a solution containing 50 mM Tris-HCl pH 7.5, 0.15 M NaCl and 0.02% Tween-20 and tapped dry. 25 μL/well of detection solution (1% [w/v] Blocker A (cat#R93AA-1, Meso Scale Discovery) in 50 mM Tris-HCl pH 7.5, 0.15 M NaCl and 0.02% Tween-20, with 1:600 rabbit polyclonal FAK phospho Y397 antibody (cat#ab39967, Abcam), 1:1000 anti-rabbit sulfo-tag antibody (cat#R32AB-1 Meso Scale Discovery) and 1:40 reconstituted Blocker D-M (cat#D609-0100, Rockland Immunochemicals for Research)) is added, and the plates resealed with adhesive film and incubated for 1 hour at room temperature on a plate shaker set to medium speed. Plates are then washed three times with a solution containing 50 mM Tris-HCl pH 7.5, 0.15 M NaCl and 0.02% Tween-20 and tapped dry. 150 μL/well of Read Buffer T+Surfactant (cat#R92TC-1, Meso Scale Discovery) is then added, and pFAK-397 levels quantified using a Meso Scale Discovery SECTOR Imager 6000 instrument.

Bounds are passed on as bounds.

T1 sequence (P35916 798-1298 isoform P35916-1): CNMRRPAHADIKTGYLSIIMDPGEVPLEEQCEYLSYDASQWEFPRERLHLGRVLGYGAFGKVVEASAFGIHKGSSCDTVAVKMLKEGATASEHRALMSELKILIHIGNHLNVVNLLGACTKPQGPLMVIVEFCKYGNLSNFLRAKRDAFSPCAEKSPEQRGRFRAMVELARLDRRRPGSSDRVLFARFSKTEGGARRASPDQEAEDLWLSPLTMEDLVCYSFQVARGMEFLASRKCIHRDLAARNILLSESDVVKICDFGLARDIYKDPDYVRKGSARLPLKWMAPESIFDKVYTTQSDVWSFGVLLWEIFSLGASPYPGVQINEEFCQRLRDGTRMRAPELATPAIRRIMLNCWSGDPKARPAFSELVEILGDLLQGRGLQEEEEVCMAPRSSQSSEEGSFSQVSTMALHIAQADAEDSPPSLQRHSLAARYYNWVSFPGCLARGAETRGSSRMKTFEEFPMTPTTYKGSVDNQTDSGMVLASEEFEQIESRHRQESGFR
T2 sequence (Q05397 2-1052 limits assumed, stated change not applied): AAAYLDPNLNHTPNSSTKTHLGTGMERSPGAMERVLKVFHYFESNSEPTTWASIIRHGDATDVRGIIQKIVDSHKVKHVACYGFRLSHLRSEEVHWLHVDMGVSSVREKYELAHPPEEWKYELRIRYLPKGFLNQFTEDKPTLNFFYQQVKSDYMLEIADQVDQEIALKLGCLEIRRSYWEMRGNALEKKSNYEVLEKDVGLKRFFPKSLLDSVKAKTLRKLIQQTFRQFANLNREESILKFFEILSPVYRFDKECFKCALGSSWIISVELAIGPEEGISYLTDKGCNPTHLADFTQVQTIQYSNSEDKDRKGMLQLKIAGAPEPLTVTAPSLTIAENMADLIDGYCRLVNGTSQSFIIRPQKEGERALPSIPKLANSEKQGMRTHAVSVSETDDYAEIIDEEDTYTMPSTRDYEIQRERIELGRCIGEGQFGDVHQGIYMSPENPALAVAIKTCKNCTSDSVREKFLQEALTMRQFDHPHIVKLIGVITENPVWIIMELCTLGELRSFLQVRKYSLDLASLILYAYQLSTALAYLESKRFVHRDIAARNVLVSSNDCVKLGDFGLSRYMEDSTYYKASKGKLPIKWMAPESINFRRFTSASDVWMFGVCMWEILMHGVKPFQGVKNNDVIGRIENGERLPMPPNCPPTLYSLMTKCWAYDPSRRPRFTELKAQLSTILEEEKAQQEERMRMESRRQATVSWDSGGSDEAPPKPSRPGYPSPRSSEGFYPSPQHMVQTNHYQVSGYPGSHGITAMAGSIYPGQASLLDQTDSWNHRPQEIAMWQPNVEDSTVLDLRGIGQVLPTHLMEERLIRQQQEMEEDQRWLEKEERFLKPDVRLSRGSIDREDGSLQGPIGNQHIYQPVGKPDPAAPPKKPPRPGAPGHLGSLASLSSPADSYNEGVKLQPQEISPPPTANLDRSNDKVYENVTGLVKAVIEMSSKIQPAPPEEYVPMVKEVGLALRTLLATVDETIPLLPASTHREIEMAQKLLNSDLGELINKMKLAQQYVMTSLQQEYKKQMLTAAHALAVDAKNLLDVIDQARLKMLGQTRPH

One may read the IC50 as the concentration at which inhibition is half-maximal. Low readings indicate higher potency, high ones lower potency. `Cc1cnc(Nc2ccc(N3CCNCC3)cc2)nc1CCc1ccccc1CC(N)=O` [Compound 2, 2-(2-(2-(5-methyl-2-((4-(piperazin-1-yl)phenyl)amino)pyrimidin-4-yl)ethyl)phenyl)acetamide] showed an IC50 in assay [1] of 39 nM.

On to `NCc1ccc(Nc2ncc(C(F)(F)F)c(CCc3ccccc3CC(N)=O)n2)cc1` [Compound 3, 2-(2-(2-(2-((4-(Aminomethyl)phenyl)amino)-5-(trifluoromethyl)pyrimidin-4-yl)ethyl)phenyl)acetamide], for which the IC50 on P397Y-FAK amounted to 62 nM; in assay [1], 97 nM. In assay [1], `Cc1cnc(Nc2ccc(C3CCNCC3)nc2)nc1CCc1ccccc1CC(N)=O` [Compound 4, 2-(2-(2-(5-methyl-2-((6-(piperidin-4-yl)pyridin-3-yl)amino)pyrimidin-4-yl)ethyl)phenyl)acetamide] displayed an IC50 of 35 nM. For the compound `Cc1cnc(Nc2ccc(C3CCN(C)CC3)nc2)nc1CCc1ccccc1CC(N)=O` [Compound 5, 2-(2-(2-(5-methyl-2-((6-(1-methylpiperidin-4-yl)pyridin-3-yl)amino)pyrimidin-4-yl)ethyl)phenyl)acetamide], the values for the IC50 (on P397Y-FAK; in assay [1]) were greater than 2000 nM and 28 nM, respectively. The like results for `NC(=O)Cc1ccccc1CCc1nc(Nc2ccc(C(=O)N3CCNCC3)cc2)ncc1C(F)(F)F` [Compound 6, 2-(2-(2-(2-((4-(piperazine-1-carbonyl)phenyl)amino)-5-(trifluoromethyl)pyrimidin-4-yl)ethyl)phenyl)acetamide] were, in that order, 940 nM and 23 nM. The like results for `Cc1cc(Nc2ncc(C(F)(F)F)c(CCc3ccccc3CC(N)=O)n2)ccc1C1CCNCC1` [Compound 11, 2-(2-(2-(2-((3-methyl-4-(piperidin-4-yl)phenyl)amino)-5-(trifluoromethyl)pyrimidin-4-yl)ethyl)phenyl)acetamide] were, in that order, 16 nM and 26 nM.

As to `Cc1cc(Nc2ncc(C(F)(F)F)c(CCc3ccccc3CC(N)=O)n2)ccc1C1CCN(C)CC1` [Compound 12, 2-(2-(2-(2-((3-methyl-4-(1-methylpiperidin-4-yl)phenyl)amino)-5-(trifluoromethyl)pyrimidin-4-yl)ethyl)phenyl)acetamide], the IC50 against P397Y-FAK amounted to 30 nM; in assay [1], 20 nM. For `Cc1cnc(Nc2ccc(C3CCNCC3)cc2)nc1CCc1ccccc1CC(N)=O` [Compound 16, 2-(2-(2-(5-methyl-2-((4-(piperidin-4-yl)phenyl)amino)pyrimidin-4-yl)ethyl)phenyl)acetamide], in that order: greater than 2000 nM and 22 nM. For `CC(N)c1ccc(Nc2ncc(C(F)(F)F)c(CCc3ccccc3CC(N)=O)n2)cc1` (stereo not drawn) [Compound 18, 2-(2-(2-(2-(4-(1-aminoethyl)phenylamino)-5-(trifluoromethyl)pyrimidin-4-yl)ethyl)phenyl)acetamide], in that order: 25 nM and 46 nM. For `Cc1cnc(Nc2cccnc2)nc1CCc1ccccc1CC(N)=O` [Compound 24, 2-(2-(2-(5-methyl-2-(pyridin-3-ylamino)pyrimidin-4-yl)ethyl)phenyl)acetamide], in that order: greater than 2000 nM and 34 nM. Consider `Cc1cnc(Nc2ccc(OC3CCNCC3)cc2)nc1CCc1ccccc1CC(N)=O` [Compound 26, 2-(2-(2-(5-methyl-2-((4-(piperidin-4-yloxy)phenyl)amino)pyrimidin-4-yl)ethyl)phenyl)acetamide], for which the IC50 at P397Y-FAK was greater than 2000 nM; in assay [1] it was 24 nM.

Regarding `Cc1cnc(Nc2cnn(C)c2)nc1CCc1ccccc1CC(N)=O` [Compound 28, 2-(2-(2-(5-methyl-2-((1-methyl-^1H-pyrazol-4-yl)amino)pyrimidin-4-yl)ethyl)phenyl)acetamide], the IC50 on P397Y-FAK was greater than 2000 nM; in assay [1], 24 nM.

For the compound `Cc1cnc(Nc2ccc(C3(N)COC3)cc2)nc1CCc1ccccc1CC(N)=O` [Compound 31, 2-(2-(2-(2-(4-(3-aminooxetan-3-yl)phenylamino)-5-methylpyrimidin-4-yl)ethyl)phenyl)acetamide], the half-maximal inhibitory concentration (IC50) against P397Y-FAK is greater than 2000 nM; in assay [1], 23 nM.

`Cc1cnc(Nc2cnn(C3CCNCC3)c2)nc1CCc1ccccc1CC(N)=O` [Compound 33, 2-(2-(2-(5-Methyl-2-((1-(piperidin-4-yl)-^1H-pyrazol-4-yl)amino)pyrimidin-4-yl)ethyl)phenyl)acetamide]: the IC50 is greater than 2000 nM against P397Y-FAK and 28 nM in assay [1]. Regarding `CC(N)c1ccc(Nc2ncc(Cl)c(CCc3ccccc3CC(N)=O)n2)cc1` (stereo not drawn) [Compound 37, 2-(2-(2-(2-(4-(1-aminoethyl)phenylamino)-5-chloropyrimidin-4-yl)ethyl)phenyl)acetamide], in assay [1], inhibition was half-maximal at 12 nM (IC50).

The values above are taken from patent US20150225377A1, “VEGFR3 INHIBITORS” (CANCER THERAPEUTICS CRC PTY LIMITED, priority 2012, published 2015).
